Data reported in patent publication US20220023302A1, “PDE9 INHIBITORS FOR TREATING SICKLE CELL DISEASE” (Imara Inc., priority 2019, published 2022).
Values after ≈ are worked out from the molar mass of the structure shown. “Also recorded” adds a separate entry of the source.

What was measured:
Townes mouse model = assay: Plasma sE-Sel in the Townes mouse model; format: in vivo; details: Townes mice treated with Compound 1
Description: Endothelial E-selectin (E-Sel) slows leukocyte rolling, which is followed by stationary adhesion and transmigration of activated leukocytes. Plasma levels of sE-Sel, produced by the enzymatic cleavage of the extracellular domains of E-Sel, are increased in SCD patients and this may be mediated by its interaction with leukocytes. In the Townes mouse model, plasma sE-Sel is increased 144% ([…]) over levels seen in control mice ([…]).

[1] = test system: In-vivo SCD: vaso occlusion; assay: In-vivo SCD: vaso occlusion (WBC)
[2] = Nonclinical data on concomitant administration of HU with Compound 1; format: in vivo
Description: Results from Population B are intended to provide information on Compound 1 when administered concomitantly with HU, both of which increase HbF levels through alternative biochemical pathways that increase intracellular cGMP. Because there are no clinical data to support administration of Compound 1 concomitantly with HU, patients in Population B initiate Compound 1 dosing at the low dose (30 mg or 50 mg) used in Population A and only escalate to the 100 mg dose if the 50 mg dose has been safe and tolerated for 4 weeks.

SCD models = assay: Circulating levels of PMNs in SCD models; format: in vivo, murine
Excerpt: Recently several drugs targeting white cell binding to endothelial cells, have been advancing in clinical studies in patients. Compound 1 is able to increase expression of fetal hemoglobin in patient derived cells and murine models of SCD and reduce vessel occlusion in SCD murine models. In this Example, the ability of Compound 1 to reduce the adhesive properties of neutrophils from SCD patients and reduce sE-Selectin (sE-Sel) and markers of PMN activation in murine SCD models was studied. […] This appears to be accompanied by a Compound 1-mediated reduction in disease specific cell activation including 67% lower levels of myeloid derived myeloperoxidase (MPO) and 26% lower levels of neutrophil derived arginase in the lung (FIG. 1). […] This was quantified by real time monitoring of the green florescent patches in the microchannel, as neutrophils are labeled by a specific Alexa Fluor® 488-conjugated antibody before the perfusion step. […] Under these conditions, adhesion was reduced an average of 54% (p=0.03) (FIG. 2). Mechanistically, not willing to be bound by any theory, Compound 1 may target the stationary adhesion step of neutrophils as it lowered expression levels of key neutrophil integrins including CD11a [reduced 23% (p=0.002)], CD11b [reduced 39% (ns)) and CD18 [reduced 47% (p=0.03)) (FIG. 3).

SCD patient neutrophils = assay: In vitro adhesion assay mimicking blood flow (microchannels lined with activated HMEC-1); format: cell-based, human
Excerpt: (§1) This appears to be accompanied by a Compound 1-mediated reduction in disease specific cell activation including 67% lower levels of myeloid derived myeloperoxidase (MPO) and 26% lower levels of neutrophil derived arginase in the lung (FIG. 1). […] This was quantified by real time monitoring of the green florescent patches in the microchannel, as neutrophils are labeled by a specific Alexa Fluor® 488-conjugated antibody before the perfusion step. […] Under these conditions, adhesion was reduced an average of 54% (p=0.03) (FIG. 2). Mechanistically, not willing to be bound by any theory, Compound 1 may target the stationary adhesion step of neutrophils as it lowered expression levels of key neutrophil integrins including CD11a [reduced 23% (p=0.002)], CD11b [reduced 39% (ns)) and CD18 [reduced 47% (p=0.03)) (FIG. 3).

Townes SCD model = assay: 28 day Townes SCD model, Compound 1 vs. HU (RBC/WBC); format: in vivo, mouse
Description: In one study, Compound 1 and therapeutic doses of HU (25 mg/kg and 50 mg/kg) were tested side-by-side in the 28 day Townes SCD model (oral daily). […] MPO is a monocyte inflammatory marker. Plasma nitrate is improved nitrate levels. Lower levels of plasma nitrate may contribute to hemolysis in SCD patients.

[3] = Stability of Compound 1 in solution as a function of pH; format: physicochemical
Excerpt: The pH of the solution affects the compound stability and solubility. […] In some embodiments, pharmaceutical composition has a pH from about 3.0 to about 7.0. In some embodiments, the pharmaceutical composition has a pH from about 3.0 to about 6.0, or from about 5.5 to about 6.5. In some embodiments, pH of the pharmaceutical composition is about 5.5, about 5.6, about 5.7, about 5.8, about 5.9, about 6.0, about 6.1, about 6.2, about 6.3, about 6.4, or about 6.5. In some embodiments, pH of the pharmaceutical composition is about 5.5. In some embodiments, pH of the pharmaceutical composition is about 6.0.
There is no obvious excipient that can mask its taste. Another major challenge was to optimize the excipients quantity. […] In some embodiments, a pharmaceutical composition of pH above 5.5 comprising Compound 1 is provided. […] Extensive formulation development and manufacturing process studies were carried out. Other challenges are the excipient compatibility and stability of the API in solution.

Townes mice = assay: Myeloid and neutrophil inflammatory markers in the lungs of Townes mice; format: in vivo, mouse
Excerpt: as §1

[4] = Clinical safety and tolerability; format: in vivo, human
Description: In some embodiments, Compound 1, or a pharmaceutically acceptable salt, solvate, or hydrate thereof is administered to a patient, wherein Compound 1, or a pharmaceutically acceptable salt, solvate, or hydrate thereof, is administered once a day with food. […] The incidence and severity of the side effects, such as nausea, emesis and headache, can be reduced when Compound 1, or a pharmaceutically acceptable salt, solvate, or hydrate thereof, is taken with food.
Therefore, Population A is designed to explore the PD dose response in patients as well as the tolerability of the 200 mg dose level in sickle cell patients who have tolerated the 100 mg dose well.

C57B1/6J = assay: In-vivo cognition: C57B1/6J
Solubility in water = format: physicochemical
Description: Per taste testing results, bitterness could be detected for all these samples. […] At this level of solubility, masking the taste of Compound 1 in an oral solution is challenging. Even high level of sucralose was evaluated and taste of the oral solution remained bitter. […] Furthermore, strawberry flavor was chosen, because patients like its sweet taste and it has a good solubility in water. Orange juice or lime juice may be used to dilute the oral solution and to mask the bitter taste before administration.

[5] = test system: Erythroid cell lines (K562, UT-7); assay: In vitro studies in erythroid cell lines vs. HU; format: cell-based
Excerpt: The effects of Compound 1 is compared with HU in in vitro studies in erythroid cell lines (K562 and UT-7).

[6] = test system: CD11a, CD11b and CD18 integrins on SCD patient neutrophils; assay: Integrin expression on SCD patient neutrophils; format: cell-based, human
Excerpt: as §1

[7] = test system: SCD patient derived cell lines; assay: Study in SCD patient derived cell lines; format: cell-based, human

In the case of `C[C@@H]1CN(Cc2ncccn2)C[C@H]1c1cn2c(C3CCOCC3)ncc2c(=O)[nH]1` [Compound 1, 6-[(3S,4S)-4-methyl-1-(pyrimidin-2-ylmethyl)pyrrolidin-3-yl]-3-tetrahydropyran-4-yl-7H-imidazo[1,5-a]pyrazin-8-one], the plasma sE-Sel levels (Townes mouse model; control mice 57, Townes mice 139) is reported as 92 ng/mL, the “plasma sE-Sel elevation over control mice” value (Townes mouse model; untreated Townes 144%) is reported as 61% and the “vaso occlusion (WBC) vs. HU” value [1] is reported as “Better results vs. HU; combo”. For the same molecule, the “increase of Compound 1 exposure by concomitant HU” value [2] was “do not suggest”, the “circulating levels of PMNs” value (SCD models) was “reduced” and the “reduction of neutrophil adhesion to activated HMEC-1” value (SCD patient neutrophils; 30 min incubation with 30 μM, average, p=0.03, FIG. 2) was 54%. For the same molecule, the “adhesion of SCD patient neutrophils to endothelial cells” value (SCD patient neutrophils; added to whole blood samples prior to perfusion) was “reduced adhesions significantly and in a dose dependent manner; also recorded: reduces adhesion”, the “key measures of RBC pathology (sickled RBCs; unconjugated bilirubin; % HbF cells; LDH activity) vs. HU” value (Townes SCD model; 28 day, oral daily, Compound 1 30 mg/kg, HU 25 and 50 mg/kg, FIG. 4) was “outperforms HU in a statistically significant manner” and the “measures of WBC pathology vs. HU” value (Townes SCD model; 28 day, oral daily, Compound 1 30 mg/kg, HU 25 and 50 mg/kg, FIG. 5) was “outperforms HU in a statistically significant manner”. The “RBC/WBC parameters vs. HU” value (Townes SCD model; Townes) was “Statistically better results than HU”, the “stability at a lower pH” value [3] was “unstable” and the “myeloid and neutrophil inflammatory markers in the lungs” value (Townes mice; Townes mice, FIG. 1 legend) was “reduces”. The “lower levels of myeloid derived myeloperoxidase (MPO) in the lung” value (Townes mice; lung, FIG. 1) was 67%, the “lower levels of neutrophil derived arginase in the lung” value (Townes mice; lung, FIG. 1) was 26% and the “effect of food on adverse event profile (nausea, emesis, headache)” value ([4]; once a day with food) was “dramatically reduce the adverse event profile”. For the same molecule, the safety and tolerability ([4]; once daily doses of 30, 50, 100, and 200 mg, nonclinical and healthy volunteer clinical data) was “safe and well tolerated”, the CNS activity (C57B1/6J) was “No CNS activity” and the solubility (Solubility in water) was ~1000 mg/mL (≈ 2530 mM). For the same molecule, the “cGMP levels vs. HU” value [5] was “increased cGMP levels compared with HU; also recorded: Increased cGMP levels vs. HU;”, the “induction of HbF (RNA, protein, etc.)” value [5] was “induction of HbF (RNA, protein, etc.)” and the “expression of CD11a, CD11b and CD18 integrins” value ([6]; FIG. 3 legend) was “reduces expression”. For the same molecule, the CD11b expression reduced ([6]; ns, FIG. 3) was 39%, the CD11a expression reduced ([6]; p=0.002, FIG. 3) was 23% and the CD18 expression reduced ([6]; p=0.03, FIG. 3) was 47%. The F-cells % [7] was “F-cells % increase” and the HbF [7] was “increases in HbF”.
